Experimental findings from US7838674B2, “Tetracyclic lactame derivatives” (Novartis AG, priority 2007, dated 2010) are described below.

The experiment deals with T1, MAPKAPK2 enzyme (HIS-MK2, Invitrogen PV4019) (Homo sapiens, UniProt P49137).
T1 construct: His; purchased Invitrogen PV4019
Briefly: Alternative MAPKAPK2 assay (Caliper microfluidic mobility shift, HSP27-peptide). Type of experiment: biochemical. The settings on record: HIS-MK2 0.013 nM, ATP 10 μM, 60 min at 30° C.

Structures are written as SMILES. Structures can show the parent of a compound that is named as a salt. Bounds are passed on as bounds.

T1 sequence (P49137 whole entry): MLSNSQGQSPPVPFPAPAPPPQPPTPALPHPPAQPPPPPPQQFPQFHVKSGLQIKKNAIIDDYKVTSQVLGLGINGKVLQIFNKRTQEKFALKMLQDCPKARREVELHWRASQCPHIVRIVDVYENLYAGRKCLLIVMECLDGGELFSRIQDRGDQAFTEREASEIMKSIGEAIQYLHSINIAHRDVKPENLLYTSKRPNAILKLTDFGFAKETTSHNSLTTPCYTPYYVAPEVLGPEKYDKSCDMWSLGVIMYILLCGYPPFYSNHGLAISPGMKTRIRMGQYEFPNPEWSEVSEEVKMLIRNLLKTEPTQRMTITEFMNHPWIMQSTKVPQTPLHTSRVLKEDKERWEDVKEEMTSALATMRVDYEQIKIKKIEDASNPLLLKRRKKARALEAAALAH

As a reminder, the IC50 is the concentration that gives 50% inhibition. Turning to `O=C1NCC2(CC2)c2[nH]c3c(c21)CCc1cnc(-c2cccnc2)cc1-3` [Example 125, 2-(1-Aminomethyl-cyclopropyl)-8-pyridin-3-yl-4,5-dihydro-1H-pyrrolo[2,3-f]isoquinoline-3-carboxylic acid lactam], the IC50 turned out to be 16 nM.

As to `CC(C)(O)CCc1ccc(-c2cc3c(cn2)CCc2c-3[nH]c3c2C(=O)NCC32CC2)cc1` [Example 126, 2-(1-Aminomethyl-cyclopropyl)-8-[4-(3-hydroxy-3-methyl-butyl)-phenyl]-4,5-dihydro-1H-pyrrolo[2,3-f]isoquinoline-3-carboxylic acid lactam], the half-inhibitory concentration (IC50) is 34 nM.

On to `CN1CCOc2cc(-c3cc4c(cn3)CCc3c-4[nH]c4c3C(=O)NCC43CC3)ccc21` [Example 130, 2-(1-Aminomethyl-cyclopropyl)-8-(4-methyl-3,4-dihydro-2H-benzo[1,4]oxazin-7-yl)-4,5-dihydro-1H-pyrrolo[2,3-f]isoquinoline-3-carboxylic acid lactam], for which the IC50 was determined as 45 nM.

Take `COc1ccc(-c2ncc3c(n2)-c2c(c4c(n2C)CC2(CNC2)NC4=O)CC3)cc1` [Example 131, 2-(3-Amino-azetidin-3-ylmethyl)-8-(4-methoxy-phenyl)-1-methyl-4,5-dihydro-1H-1,7,9-triaza-cyclopenta[a]naphthalene-3-carboxylic acid lactam hydrochloride]: the IC50 stood at 6 nM.

As to `Cn1c2c(c3c1-c1cc(-c4cccc(C#N)c4)ncc1CC3)C(=O)NC1(CNC1)C2` [Example 132, 2-(3-Amino-azetidin-3-ylmethyl)-8-(3-cyano-phenyl)-1-methyl-4,5-dihydro-1H-pyrrolo[2,3-f]isoquinoline-3-carboxylic acid lactam hydrochloride], the half-maximal inhibitory concentration (IC50) came to 14 nM.

As for `Cn1c2c(c3c1-c1cc(-c4cccc(F)c4)ncc1CC3)C(=O)NC1(CNC1)C2` [Example 133, 2-(3-Amino-azetidin-3-ylmethyl)-8-(3-fluoro-phenyl)-1-methyl-4,5-dihydro-1H-pyrrolo[2,3-f]isoquinoline-3-carboxylic acid lactam hydrochloride], the IC50 came out at 18 nM.

Regarding `Cn1c2c(c3c1-c1cc(-c4ccc(F)nc4)ncc1CC3)C(=O)NC1(CNC1)C2` [Example 134, 2-(3-Amino-azetidin-3-ylmethyl)-8-(6-fluoro-pyridin-3-yl)-1-methyl-4,5-dihydro-1H-pyrrolo[2,3-f]isoquinoline-3-carboxylic acid lactam hydrochloride], the IC50 amounted to 20 nM.

In the case of `Cn1c2c(c3c1-c1cc(-c4cncc(-c5ccccc5F)c4)ncc1CC3)C(=O)NC1(CNC1)C2` [Example 135, 2-(3-Amino-azetidin-3-ylmethyl)-8-[5-(2-fluoro-phenyl)-pyridin-3-yl]-1-methyl-4,5-dihydro-1H-pyrrolo[2,3-f]isoquinoline-3-carboxylic acid lactam hydrochloride], the IC50 was 32 nM.

`Cn1c2c(c3c1-c1cc(-c4cncc(-c5ccc(F)cc5)c4)ncc1CC3)C(=O)NC1(CNC1)C2` [Example 136, 2-(3-Amino-azetidin-3-ylmethyl)-8-[5-(4-fluoro-phenyl)-pyridin-3-yl]-1-methyl-4,5-dihydro-1H-pyrrolo[2,3-f]isoquinoline-3-carboxylic acid lactam hydrochloride]: the IC50 came to 23 nM.

As to `COc1cccc(-c2ncc3c(n2)-c2c(c4c(n2C)CC2(CNC2)NC4=O)CC3)c1` [Example 137, 2-(3-Amino-azetidin-3-ylmethyl)-8-(3-methoxy-phenyl)-1-methyl-4,5-dihydro-1H-1,7,9-triaza-cyclopenta[a]naphthalene-3-carboxylic acid lactam hydrochloride], the half-maximal inhibitory concentration (IC50) was found to be 49 nM.

As for `Cn1c2c(c3c1-c1nc(-c4ccc(Br)cc4)ncc1CC3)C(=O)NC1(CNC1)C2` [Example 139, 2-(3-Amino-azetidin-3-ylmethyl)-8-(4-bromo-phenyl)-1-methyl-4,5-dihydro-1H-1,7,9-triaza-cyclopenta[a]naphthalene-3-carboxylic acid lactam hydrochloride], the IC50 was determined as 18 nM.

In the case of `COc1cncc(-c2cc3c(cn2)CCc2c4c(n(C)c2-3)CC2(CNC2)NC4=O)c1` [Example 140, 2-(3-Amino-azetidin-3-ylmethyl)-8-(5-methoxy-pyridin-3-yl)-1-methyl-4,5-dihydro-1H-pyrrolo[2,3-f]isoquinoline-3-carboxylic acid lactam hydrochloride], the half-maximal inhibitory concentration (IC50) is 12 nM.

Turning to `COc1ccc(-c2cc3c(cn2)CCc2c4c(n(C)c2-3)CC2(CNC2)NC4=O)cn1` [Example 141, 2-(3-Amino-azetidin-3-ylmethyl)-8-(6-methoxy-pyridin-3-yl)-1-methyl-4,5-dihydro-1H-pyrrolo[2,3-f]isoquinoline-3-carboxylic acid lactam hydrochloride], the IC50 turned out to be 17 nM.

Regarding `COc1ccc(-c2cc3c(cn2)CCc2c4c(n(C)c2-3)CC2(CN(C)C2)NC4=O)cn1` [Example 142, 2-(3-Amino-1-methyl-azetidin-3-ylmethyl)-8-(6-methoxy-pyridin-3-yl)-1-methyl-4,5-dihydro-1H-pyrrolo[2,3-f]isoquinoline-3-carboxylic acid lactam], the concentration for half-maximal inhibition (IC50) is 34 nM.

Consider `COc1cc(OC)cc(-c2cc3c(cn2)CCc2c4c(n(C)c2-3)CC2(CNC2)NC4=O)c1` [Example 143, 2-(3-Amino-azetidin-3-ylmethyl)-8-(3,5-dimethoxy-phenyl)-1-methyl-4,5-dihydro-1H-pyrrolo[2,3-f]isoquinoline-3-carboxylic acid lactam hydrochloride], for which the IC50 came out at 69 nM.

Take `COc1ccc(-c2cc3c(cn2)CCc2c4c(n(C)c2-3)CC2(CNC2)NC4=O)cc1OC` [Example 144, 2-3-Amino-azetidin-3-ylmethyl)-8-(3,4-dimethoxy-phenyl)-1-methyl-4,5-dihydro-1H-pyrrolo[2,3-f]isoquinoline-3-carboxylic acid lactam hydrochloride]: the IC50 is 58 nM.

Turning to `CN1CCOc2cc(-c3cc4c(cn3)CCc3c5c(n(C)c3-4)CC3(CNC3)NC5=O)ccc21` [Example 145, 2-(3-Amino-azetidin-3-ylmethyl)-1-methyl-8-(4-methyl-3,4-dihydro-2H-benzo[1,4]oxazin-7-yl)-4,5-dihydro-1H-pyrrolo[2,3-f]isoquinoline-3-carboxylic acid lactam hydrochloride], the IC50 turned out to be 29 nM.

Regarding `Cn1c2c(c3c1-c1cc(-c4cccc(N5CCOCC5)c4)ncc1CC3)C(=O)NC1(CNC1)C2` [Example 146, 2-(3-Amino-azetidin-3-ylmethyl)-8-(3-morpholin-4-yl-phenyl)-1-methyl-4,5-dihydro-1H-pyrrolo[2,3-f]isoquinoline-3-carboxylic acid lactam hydrochloride], the concentration for half-maximal inhibition (IC50) turned out to be 45 nM.

Regarding `CN(C)c1ccc(-c2cc3c(cn2)CCc2c4c(n(C)c2-3)CC2(CNC2)NC4=O)cn1` [Example 147, 2-(3-Amino-azetidin-3-ylmethyl)-8-(6-dimethylamino-pyridin-3-yl)-1-methyl-4,5-dihydro-1H-pyrrolo[2,3-f]isoquinoline-3-carboxylic acid lactam hydrochloride], the half-inhibitory concentration (IC50) worked out at 89 nM.

Take `Cn1c2c(c3c1-c1cc(-c4ccc5c(c4)OCCO5)ncc1CC3)C(=O)NC1(CNC1)C2` [Example 148, 2-(3-Amino-azetidin-3-ylmethyl)-8-(2,3-dihydro-benzo[1,4]dioxin-6-yl)-1-methyl-4,5-dihydro-1H-pyrrolo[2,3-f]isoquinoline-3-carboxylic acid lactam hydrochloride]: the IC50 came out at 15 nM.

As to `Cn1c2c(c3c1-c1cc(-c4ccc(N5CCCCC5)nc4)ncc1CC3)C(=O)NC1(CNC1)C2` [Example 149, 2-(3-Amino-azetidin-3-ylmethyl)-8-(6-piperidinyl-pyridin-3-yl)-1-methyl-4,5-dihydro-1H-pyrrolo[2,3-f]isoquinoline-3-carboxylic acid lactam hydrochloride], the IC50 amounted to 23 nM.

Consider `Cc1ccc(-c2cc3c(cn2)CCc2c4c(n(C)c2-3)CC2(CN(C)C2)NC4=O)cn1` [Example 150, 2-(3-Amino-1-methyl-azetidin-3-ylmethyl)-8-(6-methyl-pyridin-3-yl)-1-methyl-4,5-dihydro-1H-pyrrolo[2,3-f]isoquinoline-3-carboxylic acid lactam], for which the IC50 was determined as 92 nM.

For `Cc1ccc(-c2cc3c(cn2)CCc2c4c(n(C)c2-3)CC2(CNC2)NC4=O)cn1` [Example 151, 2-(3-Amino-azetidin-3-ylmethyl)-8-(6-methyl-pyridin-3-yl)-1-methyl-4,5-dihydro-1H-pyrrolo[2,3-f]isoquinoline-3-carboxylic acid lactam hydrochloride], the concentration for half-maximal inhibition (IC50) was determined as 35 nM.

For `Cn1c2c(c3c1-c1cc(-c4ccncc4)ncc1CC3)C(=O)NC1(CNC1)C2` [Example 152, 2-(3-Amino-azetidin-3-ylmethyl)-8-(pyridin-4-yl)-1-methyl-4,5-dihydro-1H-pyrrolo[2,3-f]isoquinoline-3-carboxylic acid lactam hydrochloride], the 50% inhibitory concentration (IC50) amounted to 15 nM.

In the case of `Cn1c2c(c3c1-c1cc(-c4cccnc4)ncc1CC3)C(=O)NC1(CNC1)C2` [Example 153, 2-(3-Amino-azetidin-3-ylmethyl)-8-(pyridin-3-yl)-1-methyl-4,5-dihydro-1H-pyrrolo[2,3-f]isoquinoline-3-carboxylic acid lactam hydrochloride], the IC50 stood at 17 nM.

For the compound `O=C1NCC2(CNC2)c2[nH]c3c(c21)CCc1cnc(-c2ccc(Oc4ccc(F)cc4F)nc2)cc1-3` [Example 154, 2-(3-Aminomethyl-azetidin-3-yl)-8-[6-(2,4-difluoro-phenoxy)-pyridin-3-yl]-4,5-dihydro-1H-pyrrolo[2,3-f]isoquinoline-3-carboxylic acid lactam], the IC50 is less than 3 nM.

As for `Cc1ccc(-c2cc3c(cn2)CCc2c-3[nH]c3c2C(=O)NC2(CC2)C3)c(F)n1` [Example 158, 2-(1-Amino-cyclopropylmethyl)-8-(2-fluoro-6-methyl-pyridin-3-yl)-4,5-dihydro-1H-pyrrolo[2,3-f]isoquinoline-3-carboxylic acid lactam], the concentration for half-maximal inhibition (IC50) was 51 nM.
